The target in one assay is T1, FLT3 (Homo sapiens, UniProt P36888).
T1 construct: purchased Reaction Biology
T1 sequence (P36888 27-993): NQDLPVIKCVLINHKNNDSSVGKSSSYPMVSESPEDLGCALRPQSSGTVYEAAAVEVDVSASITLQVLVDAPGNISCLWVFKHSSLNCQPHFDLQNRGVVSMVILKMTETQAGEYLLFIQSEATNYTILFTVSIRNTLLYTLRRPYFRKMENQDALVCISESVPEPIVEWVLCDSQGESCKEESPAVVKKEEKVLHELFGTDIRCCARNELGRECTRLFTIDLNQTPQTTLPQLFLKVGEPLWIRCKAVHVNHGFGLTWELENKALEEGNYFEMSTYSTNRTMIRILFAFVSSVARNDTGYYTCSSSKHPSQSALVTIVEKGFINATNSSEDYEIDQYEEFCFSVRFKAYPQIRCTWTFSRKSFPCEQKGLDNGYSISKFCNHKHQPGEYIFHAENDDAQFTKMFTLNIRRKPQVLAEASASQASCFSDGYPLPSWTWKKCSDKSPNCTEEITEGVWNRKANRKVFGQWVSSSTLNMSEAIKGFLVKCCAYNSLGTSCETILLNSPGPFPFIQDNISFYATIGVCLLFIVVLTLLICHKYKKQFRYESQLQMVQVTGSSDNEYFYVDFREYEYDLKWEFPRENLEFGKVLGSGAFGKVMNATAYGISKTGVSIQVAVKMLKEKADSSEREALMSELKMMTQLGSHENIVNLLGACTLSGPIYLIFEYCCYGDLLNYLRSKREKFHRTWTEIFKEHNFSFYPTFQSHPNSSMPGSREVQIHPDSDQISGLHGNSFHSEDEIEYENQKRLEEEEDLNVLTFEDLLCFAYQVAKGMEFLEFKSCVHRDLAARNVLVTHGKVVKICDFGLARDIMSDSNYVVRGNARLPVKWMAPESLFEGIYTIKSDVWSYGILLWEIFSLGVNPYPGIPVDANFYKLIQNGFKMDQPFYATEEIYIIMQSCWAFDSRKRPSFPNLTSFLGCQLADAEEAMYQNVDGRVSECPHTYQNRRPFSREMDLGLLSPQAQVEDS
Description: HotSpot radiometric kinase assay (Reaction Biology), FLT3. Format: biochemical. The note with it: 4 nM kinase, substrate ABLtide 20 μM, 33P-ATP, 120 minutes at room temperature. As to the method:
(§1) The compounds were profiled in the HotSpot radiometric assays (Reaction Biology).
(§2) Briefly, • 1. Substrate indicated in Table 1 was dissolved in freshly prepared reaction buffer (20 mM HEPES (pH 7.5), 10 mM MgCl2, 1 mM EGTA, 0.01% Brij35, 0.02 mg/ml BSA, 0.1 mM Na3VO4, 2 mM DTT, 1% DMSO) at the concentration indicated in Table 1. • 2. Corresponding kinase (concentration indicated in Table 1) was added and the mixture was gently mixed. • 3. Tested compound dissolved in DMSO was added into the kinase reaction mixture. • 4. ^33P-ATP (specific activity 0.01 μCi/μL final) was added into the reaction mixture to initiate the reaction. • 5. The kinase reaction was incubated for 120 minutes at room temperature. • 6. Reaction mixture was spotted onto P81 ion exchange paper (Whatman K 3698-915). • 7. The filters were extensively washed with 0.754 phosphoric acid. • 7. The radioactive phosphorylated substrate remaining on the filter paper was measured.
(§3) Kinase activity data were expressed as the percent remaining kinase activity in tested samples compared to the vehicle (DMSO) reactions. IC50 values and curve fits were obtained using Prism4 Software (GraphPad).
Table 2 summarizes the inhibitory activities of indicated compounds tested in the in vitro kinase assays described above.

Another assay has as its target T2, DDR1 (Homo sapiens, UniProt Q08345).
T2 construct: purchased Reaction Biology
The experiment in a line: HotSpot radiometric kinase assay (Reaction Biology), DDR1. Format: biochemical. The note with it: 200 nM kinase, substrate IRS1tide 20 μM, 33P-ATP, 120 minutes at room temperature. As for the experimental part: as §1
as §2, with “Reaction mixture was spotted onto P81 ion exchange paper (Whatman K 3698-915). • 7. The filters were extensively washed with 0.754 phosphoric acid. • 7.” left out
as §3

Each structure is given as a SMILES string.

T2 sequence (Q08345 19-913): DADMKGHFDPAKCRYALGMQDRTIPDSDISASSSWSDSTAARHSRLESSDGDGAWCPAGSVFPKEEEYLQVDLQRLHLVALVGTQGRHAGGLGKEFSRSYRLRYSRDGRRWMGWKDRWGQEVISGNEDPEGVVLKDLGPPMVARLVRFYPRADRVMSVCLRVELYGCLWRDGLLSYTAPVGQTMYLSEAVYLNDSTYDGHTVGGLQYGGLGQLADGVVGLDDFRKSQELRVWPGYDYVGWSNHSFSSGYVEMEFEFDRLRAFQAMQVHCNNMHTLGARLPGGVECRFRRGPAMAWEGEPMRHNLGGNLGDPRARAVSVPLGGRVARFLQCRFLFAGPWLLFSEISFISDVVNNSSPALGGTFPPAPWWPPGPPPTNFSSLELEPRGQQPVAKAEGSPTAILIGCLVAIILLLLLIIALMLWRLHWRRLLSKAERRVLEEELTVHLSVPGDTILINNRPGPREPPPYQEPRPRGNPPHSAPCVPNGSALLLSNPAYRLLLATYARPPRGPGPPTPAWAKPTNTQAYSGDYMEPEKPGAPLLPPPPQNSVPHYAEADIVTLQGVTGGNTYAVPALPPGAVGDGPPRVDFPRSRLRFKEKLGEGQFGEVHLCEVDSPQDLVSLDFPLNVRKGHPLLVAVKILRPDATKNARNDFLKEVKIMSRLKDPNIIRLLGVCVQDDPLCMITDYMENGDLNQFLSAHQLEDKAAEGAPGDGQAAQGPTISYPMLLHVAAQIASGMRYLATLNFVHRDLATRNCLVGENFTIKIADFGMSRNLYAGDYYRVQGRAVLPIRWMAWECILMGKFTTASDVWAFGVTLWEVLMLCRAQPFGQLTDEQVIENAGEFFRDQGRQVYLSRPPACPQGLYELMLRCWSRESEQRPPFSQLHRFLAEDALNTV

The IC50 is the point on the concentration scale where inhibition reaches its midpoint. `NC(=O)Nc1cccc(-c2coc3cc(-c4ccccc4)cnc23)c1` [1-(3-(6-phenylfuro[3,2-b]pyridin-3-yl)phenyl)urea] came in with an IC50 against FLT3 of 46 nM.
Same read-out and setting: the same measure for `Cc1cc(-c2coc3cc(-c4ccc(N5CCNCC5)cc4)cnc23)cc(C)n1` [Preparative Example 8, 3-(2,6-dimethylpyridin-4-yl)-6-(4-(piperazin-1-yl)phenyl)furo[3,2-b]pyridine]: 279 nM.
Regarding `c1cncc(-c2coc3cc(-c4ccc(N5CCNCC5)cc4)cnc23)c1` [Preparative Example 11, 6-(4-(piperazin-1-yl)phenyl)-3-(pyridin-3-yl)furo[3,2-b]pyridine], the results for the IC50 against DDR1 and at FLT3 were 294 nM and 25 nM, respectively.
Turning to `COc1ccccc1-c1coc2cc(-c3ccc(N4CCNCC4)cc3)cnc12` [Preparative Example 17, 3-(2-methoxyphenyl)-6-(4-(piperazin-1-yl)phenyl)furo[3,2-b]pyridine], the IC50 at DDR1 is 184 nM; on FLT3 it was 226 nM.
On to `c1ccc(-c2cnc3c(-c4ccncc4)coc3c2)cc1` [Preparative Example 22, 6-phenyl-3-(pyridin-4-yl)furo[3,2-b]pyridine], for which, at FLT3, 183 nM corresponded to half-maximal inhibition (IC50).
Take `c1cc(-c2coc3cc(-c4ccc(N5CCOCC5)nc4)cnc23)ccn1` [Preparative Example 23, 6-(6-morpholinopyridin-3-yl)-3-(pyridin-4-yl)furo[3,2-b]pyridine]: it took 99 nM to reach half-maximal inhibition against FLT3 (IC50).
`Nc1ccc(-c2cnc3c(-c4ccncc4)coc3c2)cc1` [Preparative Example 47, 4-(3-(pyridin-4-yl)furo[3,2-b]pyridin-6-yl)aniline] had an IC50 at FLT3 of 90 nM.
On the same count and under the same terms, the same measure for `c1cc(-c2coc3cc(-c4ccc(N5CCCCC5)nc4)cnc23)ccn1` [Preparative Example 48, 6-(6-(piperidin-1-yl)pyridin-3-yl)-3-(pyridin-4-yl)furo[3,2-b]pyridine]: 136 nM.
Turning to `CC(C)c1ccc(-c2coc3cc(-c4ccc(N5CCNCC5)cc4)cnc23)cc1` [Preparative Example 67, 3-(4-isopropylphenyl)-6-(4-(piperazin-1-yl)phenyl)furo[3,2-b]pyridine], the IC50 on FLT3 was 608 nM. This IC50 is about 4.5-fold higher than that of the compound before.
For `Cc1nc2c(-c3ccncc3)coc2cc1-c1ccc(N2CCN(C)CC2)cc1` [Preparative Example 80, 5-methyl-6-(4-(4-methylpiperazin-1-yl)phenyl)-3-(pyridin-4-yl)furo[3,2-b]pyridine], the IC50 against FLT3 was 137 nM. Against the preceding compound, the IC50 is about 4.4-fold lower.
Same read-out and setting: for `c1ccc(Nc2cnc3c(-c4ccncc4)coc3c2)cc1` [Preparative Example 84, N-phenyl-3-(pyridin-4-yl)furo[3,2-b]pyridin-6-amine] the value was 139 nM; for `CN(C)CCN(C)c1ccc(Nc2cnc3c(-c4ccncc4)coc3c2)cc1` [Preparative Example 98, N^1-(2-(dimethylamino)ethyl)-N^1-methyl-N^4-(3-(pyridin-4-yl)furo[3,2-b]pyridin-6-yl)benzene-1,4-diamine], 122 nM; for `Cc1ccc(NC(=O)c2cccc(-c3coc4cc(-c5ccc(N6CCNCC6)cc5)cnc34)c2)cc1` [Preparative Example 119, 3-(6-(4-(piperazin-1-yl)phenyl)furo[3,2-b]pyridin-3-yl)-N-(p-tolyl)benzamide], 790 nM.
On the same count and under the same terms, for `O=S(=O)(NCc1ccccc1)c1cccc(-c2coc3cc(-c4ccc(N5CCNCC5)cc4)cnc23)c1` [Preparative Example 122, N-benzyl-3-(6-(4-(piperazin-1-yl)phenyl)furo[3,2-b]pyridin-3-yl)benzenesulfonamide] the value was 138 nM.
With `CN1CCN(c2ccc(-c3cnc4c(-c5cccc(-c6ccccc6)c5)coc4c3)cc2)CC1` [Preparative Example 158, 3-([1,1′-biphenyl]-3-yl)-6-(4-(4-methylpiperazin-1-yl)phenyl)furo[3,2-b]pyridine], the IC50 against DDR1 was determined as 184 nM. In other words, the sub-micromolar range.
As to `C(#Cc1coc2cc(-c3ccc(N4CCNCC4)cc3)cnc12)c1ccccc1` [Preparative Example 191, 1-{4-[3-(2-phenylethynyl)furo[3,2-b]pyridin-6-yl]phenyl}piperazine], inhibition against DDR1 was half-maximal at 329 nM (IC50).
Consider `c1ncc(-c2coc3cc(-c4ccc(N5CCNCC5)cc4)cnc23)cn1` [Preparative Example 206, 5-{6-[4-(piperazin-1-yl)phenyl]furo[3,2-b]pyridin-3-yl}pyrimidine], for which 203 nM corresponded to half-maximal inhibition against FLT3 (IC50).
`CN1CCN(c2ccc(-c3cnc4c(-c5cccc(C(N)=O)c5F)coc4c3)cc2)CC1` [Preparative Example 214, 2-fluoro-3-(6-(4-(4-methylpiperazin-1-yl)phenyl)furo[3,2-b]pyridin-3-yl)benzamide] yielded an IC50 against FLT3 of 496 nM.
Same read-out and setting: for `CN1CCN(c2ccc(-c3cnc4c(-c5ccc(CC(N)=O)cc5)coc4c3)cc2)CC1` [Preparative Example 236, 2-(4-(6-(4-(4-methylpiperazin-1-yl)phenyl)furo[3,2-b]pyridin-3-yl)phenyl)acetamide] the value was 54 nM.
Consider `CCCc1oc2cc(-c3ccc(N4CCN(C)CC4)cc3)cnc2c1-c1ccc(C(N)=O)cc1` [Preparative Example 243, 4-{6-[4-(4-methylpiperazin-1-yl)phenyl]-2-propylfuro[3,2-b]pyridin-3-yl}benzamide], for which, at DDR1, the half-inhibitory concentration (IC50) was determined as 208 nM. In other words, the sub-micromolar range.
Regarding `CCCc1oc2cc(-c3ccc(N4CCN(C)CC4)cc3)cnc2c1-c1cnn(C)c1` [Preparative Example 245, 1-methyl-4-{4-[3-(1-methyl-1H-pyrazol-4-yl)-2-propylfuro[3,2-b]pyridin-6-yl]phenyl}piperazine], at DDR1, the IC50 is 312 nM.
`CN1CCN(c2ccc(-c3cnc4c(-c5ccccc5)c(-c5ccccc5)oc4c3)cc2)CC1` [Preparative Example 249, 1-(4-{2,3-diphenylfuro[3,2-b]pyridin-6-yl}phenyl)-4-methylpiperazine] gave an IC50 on DDR1 of 549 nM.
As to `CN1CCN(c2ccc(-c3cnc4c(-c5ccc(NC(N)=O)cc5)coc4c3)cc2)CC1` [Preparative Example 251, (4-{6-[4-(4-methylpiperazin-1-yl)phenyl]furo[3,2-b]pyridin-3-yl}phenyl)urea], on FLT3, half-maximal inhibition (IC50) required 113 nM.
As for `COc1ccc(-c2coc3cc(-c4ccc(N5CCN(C)CC5)cc4)cnc23)cn1` [Preparative Example 259, 3-(6-methoxypyridin-3-yl)-6-(4-(4-methylpiperazin-1-yl)phenyl)furo[3,2-b]pyridine], at DDR1, half-maximal inhibition (IC50) was put at 261 nM.
In the case of `c1ccc(-c2coc3ccc(Nc4ccc(N5CCOCC5)cc4)nc23)cc1` [compound 8B from WO 2015/165428, reference compound], the midpoint of inhibition against FLT3, the IC50, lay at 1950 nM. This lies in the single-digit micromolar range.
Regarding `CN1CCN(c2ccc(Nc3ccc4occ(-c5ccccc5)c4n3)cc2)CC1` [compound 8C from WO 2015/165428, reference compound], the midpoint of inhibition at FLT3, the IC50, lay at 1030 nM.
For `c1ccc(-c2coc3ccc(Nc4ccncc4)nc23)cc1` [compound 8D from WO 2015/165428, reference compound], the concentration for half-maximal inhibition (IC50) against FLT3 stood at 1240 nM.
Compound `c1ccc(Nc2ccc3occ(-c4ccccc4)c3n2)cc1` [compound 8E from WO 2015/165428, reference compound] showed an IC50 on FLT3 of 2720 nM.

The record behind these values is patent publication US20250352550A1, “SUBSTITUTED FUROPYRIDINES FOR THERAPEUTIC USE” (MASARYKOVA UNIVERZITA, priority 2022, published 2025).
